Measurements from patent publication US8119339B2, “Heteroduplex tracking assay” (priority 2000, dated 2012).
Where “and” joins values, the source holds several entries; their conditions need not be identical. Equal entries are not always repeated.

What was measured:
[1] = test system: GHOST.CCR5 and GHOST.CXCR4 indicator cells (R5-tat, X4-tat); experiment: Rapid Cell Fusion Assay for coreceptor utilization (CAT-ELISA); type: cell-based; settings: cloned patient env gene expressed on HL3T1 cells, fusion for 48 hours
Source text: Viral coreceptor usage was separately evaluated through the use of a Rapid Cell Fusion Assay. This assay enables determination of coreceptor usage from cloned HIV env gene sequences obtained directly from patient samples (e.g. blood, mucosal tissue). This method allows for greater efficiency in determination of viral coreceptor usage, by circumventing the need for cultivation of primary isolates. The Rapid Cell Fusion Assay can advantageously produce a result within one week after obtaining a patient sample. In addition, the Rapid Cell Fusion Assay allows study of patient-derived virus obtained from sites other than the peripheral blood, particularly those sites from which cultured virus cannot be obtained. For example, while circulating macrophages and CD4^+ T cells are the dominant reservoir of HIV-1, viral populations distinct from those in the peripheral blood exist in many reservoirs, including the genital tract.
The HL3T1 cell line was derived by stable transfection of parental HeLa cells with a chloramphenicol acetyltransferse (CAT) reporter construct containing a CAT gene is linked to an HIV-1 LTR promoter. The HL3T1 cells produce CAT protein only upon introduction of an active HIV-1 Tat protein. HL3T1 cells were transfected with a cloned env gene derived from a patient of interest. The cloned env gene product is expressed on the surface of the HL3T1 cells.
Indicator cell lines GHOST.CCR5 and GHOST.CXCR4 (respectively hereinafter “R5-tat” and “X4-tat”) cells were transfected with pSV2tat72, a construct expressing high levels of HIV-1 Tat under the control of the SV40 early promoter.
HL3T1 cells containing a cloned patient env gene were fused to R5-tat and X4-tat cells. Cell surface envelope protein variants will selectively interact with either CCR5 or CXCR4. Fusion only occurs when an HL3T1 envelope protein interacts with an indicator cell expressing a compatible coreceptor. Therefore, HL3T1 cells will fuse with either R5-tat and X4-tat, depending on the patient's env gene specificity. To initiate fusion, transfected HL3T1 and R5-tat or X4-tat cells were mixed in 6-well plates at 37° C. and allowed to fuse for 48 hours. To quantitate fusion, the cells were lysed with 0.5% NP-40. Fusion of HL3T1 cells to R5-tat or X4-tat activated CAT gene expression. Aliquots of the cell lysates were monitored for CAT production using a commercially available kit (CAT-ELISA, Boehringer Mannheim).
Twenty-five clones from each sample were analyzed to ensure that the fusion assay reflected the heterogeneous nature of HIV-1 populations.

HIV-1 = settings: Status before combination therapy, single patient, on the listed anti-HIV therapy
Procedure: (§1) Coreceptor use was examined in twenty-two women who participated in two prospective studies of HIV-1 infection. Nineteen were enrolled in the Bronx-Manhattan site of Women's Interagency HIV Study (WIHS), a National Institutes of Health (NIH) multicenter study of the natural history of HIV-1 infection in women. Three took part in a study of HIV-1 pathogenesis performed at the Wadsworth Center of the New York State Department of Health in Albany, N.Y. Both studies included individuals with a broad spectrum of HIV-1 disease. The institutional review boards at each clinical site and the New York State Department of Health approved the investigation. Each woman provided informed consent at enrollment.
(§2) To examine the effect of combination antiretroviral therapy on HIV-1 coreceptor use, women infected with CXCR4 strains were sought.
Once the study population was selected, blood was drawn and separated into plasma and cell components (Anastos et al. (2000) J. AIDS Hum. Retro. (in press); Fang et al. (1995)). HIV-1 RNA in plasma was quantitated by using NucliSens (Organon Teknika Corp., Durham, N.C.), with a lower limit of quantitation of ˜80 copies/ml. The CCR5 genotype of each patient was determined as described (Samson et al. (1996)).
(§3) At that time, eight women were receiving antiretroviral therapy, primarily zidovudine monotherapy. While under study, however, 12 initiated new combination regimens; 9 received HAART (Group I) and 3 received two or more nucleoside analogues (Group II). […] In Table 1, “Before therapy” refers to data obtained at the visit immediately preceding initiation of new two or three drug antiretroviral therapy in Groups I & II. For Group III, data from the first time point are shown (a). “Follow-up” refers to data obtained at the first time point following the initiation of the anti-HIV therapy listed for Groups I & II.

[2] = test system: HIV-1 strains using CCR5 versus CXCR4; experiment: QXR, proportion of patient HIV-1 using CCR5; type: in vivo, human; settings: Status before combination therapy, single patient, on the listed anti-HIV therapy
Procedure: To quantitate HIV-1 coreceptor use, inventors constructed a variable, λ, as the proportion of strains using CCR5. This variable has since been renamed QXR. […] QXR values were assessed by utilizing qualitative assay data derived from primary isolates, biologic clones, and sequences of the V3 portion of the env gene. […] Thus, for the vast majority of virions, each virion uses either CCR5 or CXCR4. This relationship can be stated as a mixture
D=QXR(CCR5)+(1−QXR)(CXCR4); 0≦QXR≦1, where D is the distribution of viral phenotypes. By design, it is a binomial population.
QXR values were constructed by relating data derived from the same patient sample by using three different analyses: biologic cloning, V3 sequencing of patient-derived molecular clones, and qualitative assays of primary isolates. To construct QXR values, inventors first calculated the proportion of biologic and, if available, molecular clones using CCR5 at each time point, then linked the proportion to the qualitative coreceptor use score (− to 3+) of primary isolates obtained simultaneously. Data that were not available were interpolated. […]
The large number of biologic and molecular clones permitted derivation of a system to quantitate the proportion of virus in a clinical specimen that uses each coreceptor. […] By applying this method, it was determined the proportion of virus using each coreceptor for each patient over time. […]

CD4+ cells = experiment: CD4+ cell count in women before and after antiretroviral therapy; type: in vivo, human; settings: Status before combination therapy, single patient, on the listed anti-HIV therapy
Procedure: as §1, §2, §3

[3] = test system: V3 region of the env gene; experiment: Coreceptor use predicted from V3 loop sequences of plasma HIV-1 RNA molecular clones; settings: number of molecular clones of virion-derived plasma HIV-1 RNA
Source text: HIV-1 virions were isolated from plasma samples as described (Fang et al. (1996) J. AIDS Hum. Retro. 12:352-7). Reverse transcriptase polymerase chain reaction amplification produced a 920-bp amplicon spanning the V3 region of the env gene. Reaction conditions were controlled rigorously to minimize recombination and other artifacts (Fang et al. (1996)). Amplified products were cloned into a TOPO™ TA vector (Invitrogen, Carlsbad, Calif.), verified by restriction digestion, and sequenced. Alignment of the sequences was initially done using the PILEUP program in the GCG Suite (Genetics Computer Group, Madison, Wis.), then checked manually. Envelope sequences were used to predict coreceptor use on the basis of the overall charge of the V3 loop and the presence of basic or acidic residues at positions […] (Bhattacharyya et al. (1996); and Hung et al. (1999)).
These sequences predicted a pattern of coreceptor use that essentially paralleled the one obtained by using viral culture (Table 2B, Coreceptor use determined by cocultivation of PBMCs vs. sequence analysis of plasma HIV-1 RNA). […] At each time point, coreceptor use was assayed by co-cultivating PBMCs and determining the V3 loop sequence of virion-derived HIV-1 RNA.

Row | Molecule | CORECEPTOR [1] | further results
1 | CTRPNNNTRKSVHIGPGQAFYATGDIIGNIRKAHC [AF3P-4] | CCR5 | –
2 | CIRPNNNTRQSVHIGPGQALYTTEIIGDIRKAHC [AF7P-9] | CCR5 | –
3 | CTRPSNNRRKSIHMGPGQAFYGT.DDIIGDIRKARC [AF6P-12] | CCR5 | –
4 | CTRPNNNTITSIRIGPGQAFYATGSIIGNIRQAHC [AF9P2-3] | CCR5 | –
5 | CTRPSNNRRKSIHMGPGQAFYGT.DDIIGGIRKARC [AF6P-11] | CCR5 | –
6 | CIRPNNNTRTSIRIGPGQAFYATGNIVGDIRQAYC [AF2P12-11] | CCR5 | –
7 | Cc1cn([C@H]2C=C[C@@H](CO)O2)c(=O)[nH]c1=O [d4T, stavudine] | – | HIV-1 RNA, log copies per ml (HIV-1): 5.28 log copies per ml; QXR, proportion of HIV-1 Using R5 [2]: 0.36; CD4+ count, cells per mm3 (CD4+ cells): 9 cells per mm3
8 | CTRPNDNIRKRVHIGPGQAFYATGDVIGDIRRAHC [AF10P97-4] | CXCR4 | –
9 | CTRPNNNTRKSVHIGPGQAFYATGDIIGDIRQAYC [AF5P-5] | CCR5 | –
10 | CTRPNNNTRKSVHIGPGQAFYATGDIIGNMRKAHC [AF3P-12] | CCR5 | –
11 | CIRPNNNTRTSIRIGPGQAFYATGNIIGGIRQAYC [AF2P12-2] | CCR5 | –
12 | Cc1cn([C@H]2C[C@H](N=[N+]=[N-])[C@@H](CO)O2)c(=O)[nH]c1=O [AZT, zidovudine] | – | Distribution of Co-Receptor Use Predicted by V3 Loop Sequences, CCR5 [3]: 9; Distribution of Co-Receptor Use Predicted by V3 Loop Sequences, CXCR4 [3]: 4; HIV-1 RNA, log copies per ml (HIV-1): 5.30 log copies per ml and 4.94 log copies per ml and 5.58 log copies per ml and 5.04 log copies per ml and 5.23 log copies per ml; QXR, proportion of HIV-1 Using R5 [2]: 0.36 (2×) and 0.90 and 0.00 (2×); CD4+ count, cells per mm3 (CD4+ cells): 188 cells per mm3 and 42 cells per mm3 and 259 cells per mm3 and 307 cells per mm3 and 43 cells per mm3
13 | CTRPSNNRRKSIHKGDQDKHSMEHDDVIGDIRKARC [AF6P-7] | negative | –
14 | CIRPNNNTRTSIRIGPGQAFYATGNIIGDIRQAYC [AF2P12-12] | CCR5 | –
15 | CTRPINNRRKSIHIGPGQAFYGT.DDIIGDIRQAHC [AF6P-10] | CCR5 | –
16 | CTRPNNNTKKSVHIGPGQAFYATGDIIGDIRQAYC [AF5P-6] | CCR5 | –
17 | CTRPNNNTRKSVHIGPGQAFYATGDILGNIRQAHC [AF3P-11] | CCR5 | –
18 | CTRPNDNIRKSVHIGPGQAFYATGDIIGDIRRAHC [AF10P97-2] | CCR5 | –
19 | CTRPNNNTRKSVHIGPGQAFYATGDIIGNIRQAHC [AF3P-6] | CCR5 | –
20 | CIRPNNNTRTSIRIGPRQAFYATGNIIGDIRQAYC [AF2P12-10] | CXCR4 | –
21 | CTRPINNRRKSIHMGPGQAFYGT.DDIIGDIRKARC [AF6P-1] | CCR5 | –
22 | CTRPNNNTITSIRIGPGQAFYATGSIIGNTRQAHC [AF9P2-4] | CCR5 | –
23 | ........RKSVHIGPGQAFYATGDIIGNIRKAHC [AF3P-2] | negative | –
24 | CTRPNNNTRKSVHIGLGQAFYATGDIIGNIRKAHC [AF3P-9] | CCR5 | –
